Measured values as given in article PMC5218480 (PLoS ONE, 2017).

System: MV-4-11 cells
Assay: Gene expression microarray analysis (Affymetrix PrimeView) and GSEA
Format: cell-based, human
Parameters: RFU PODN (11730768_x_at) / Fold change /veh PODN (11730768_x_at) / RFU LINC00158 (11744669_a_at) / Fold change /veh LINC00158 (11744669_a_at) / RFU DUSP10 (11751237_a_at) / Fold change /veh DUSP10 (11751237_a_at) / RFU ID3 (11757404_x_at) / Fold change /veh ID3 (11757404_x_at) / RFU PLEKHG5 (11737974_s_at) / Fold change /veh PLEKHG5 (11737974_s_at) / RFU LRRC4B (11730491_at) / Fold change /veh LRRC4B (11730491_at) / RFU GIMAP4 (11747438_a_at) / Fold change /veh GIMAP4 (11747438_a_at) / RFU KRT8 (11758183_x_at) / Fold change /veh KRT8 (11758183_x_at) / RFU CNN1 (11734310_a_at) / Fold change /veh CNN1 (11734310_a_at) / RFU VPS37D (11726825_at) / Fold change /veh VPS37D (11726825_at) / RFU C10orf10 (11716522_x_at) / Fold change /veh C10orf10 (11716522_x_at) / RFU KIR2DL2 /// KIR2DL4 /// KIR2DL5A /// KIR2DL5B /// KIR2DS1 /// KIR2DS2 /// KIR2DS3 /// KIR2DS4 /// KIR3DL3 /// KIR3DL3 /// KIR3DS1 (11738374_at) / Fold change /veh KIR2DL2 /// KIR2DL4 /// KIR2DL5A /// KIR2DL5B /// KIR2DS1 /// KIR2DS2 /// KIR2DS3 /// KIR2DS4 /// KIR3DL3 /// KIR3DL3 /// KIR3DS1 (11738374_at) / RFU C1QL1 (11718748_at) / Fold change /veh C1QL1 (11718748_at) / RFU TMPRSS4 (11747572_a_at) / Fold change /veh TMPRSS4 (11747572_a_at) / RFU HAMP (11756126_x_at) / Fold change /veh HAMP (11756126_x_at) / RFU RNFT2 (11725882_a_at) / Fold change /veh RNFT2 (11725882_a_at) / RFU NR4A2 (11747474_a_at) / Fold change /veh NR4A2 (11747474_a_at) / RFU ABCC12 (11746883_a_at) / Fold change /veh ABCC12 (11746883_a_at) / RFU TMEM136 (11760407_x_at) / Fold change /veh TMEM136 (11760407_x_at) / RFU CLDN22 /// WWC2 (11732394_at) / Fold change /veh CLDN22 /// WWC2 (11732394_at) / RFU HLA-DPB1 (11760878_x_at) / Fold change /veh HLA-DPB1 (11760878_x_at) / RFU SPINT1 (11716480_a_at) / Fold change /veh SPINT1 (11716480_a_at) / RFU GAP43 (11754022_s_at) / Fold change /veh GAP43 (11754022_s_at) / RFU A4GNT (11735810_at) / Fold change /veh A4GNT (11735810_at) / RFU PRB3 (11715151_x_at) / Fold change /veh PRB3 (11715151_x_at) / RFU TUBB4B (11761932_at) / Fold change /veh TUBB4B (11761932_at) / RFU CAPN14 (11732068_a_at) / Fold change /veh CAPN14 (11732068_a_at) / RFU TMCC2 (11721928_a_at) / Fold change /veh TMCC2 (11721928_a_at) / RFU IRGQ (11745062_a_at) / Fold change /veh IRGQ (11745062_a_at) / RFU FAM174B (11720279_a_at) / Fold change /veh FAM174B (11720279_a_at) / RFU TMPRSS4 (11748680_a_at) / Fold change /veh TMPRSS4 (11748680_a_at) / RFU FAM212B (11763350_a_at) / Fold change /veh FAM212B (11763350_a_at) / RFU PLEKHG5 (11743358_a_at) / Fold change /veh PLEKHG5 (11743358_a_at) / RFU ZSCAN30 (11745921_a_at) / Fold change /veh ZSCAN30 (11745921_a_at) / RFU CMKLR1 (11741424_a_at) / Fold change /veh CMKLR1 (11741424_a_at) / RFU LOC101060620 /// MAPK8IP1 (11723275_at) / Fold change /veh LOC101060620 /// MAPK8IP1 (11723275_at) / RFU SPTSSB (11747773_x_at) / Fold change /veh SPTSSB (11747773_x_at) / RFU PRSS12 (11739890_at) / Fold change /veh PRSS12 (11739890_at) / RFU BIN1 (11741810_x_at) / Fold change /veh BIN1 (11741810_x_at) / RFU WNT11 (11732464_a_at) / Fold change /veh WNT11 (11732464_a_at) / RFU C10orf10 (11716521_a_at) / Fold change /veh C10orf10 (11716521_a_at) / RFU C5orf56 (11738089_at) / Fold change /veh C5orf56 (11738089_at) / RFU CYB561 (11721691_x_at) / Fold change /veh CYB561 (11721691_x_at) / RFU ANKRD19P (11752326_a_at) / Fold change /veh ANKRD19P (11752326_a_at) / RFU OR2T12 /// OR2T33 /// OR2T8 (11738714_s_at) / Fold change /veh OR2T12 /// OR2T33 /// OR2T8 (11738714_s_at) / RFU VCAN (11748164_a_at) / Fold change /veh VCAN (11748164_a_at) / RFU JSRP1 (11732532_at) / Fold change /veh JSRP1 (11732532_at) / RFU KRTAP10-11 (11738290_x_at) / Fold change /veh KRTAP10-11 (11738290_x_at) / RFU MYO3A (11730013_a_at) / Fold change /veh MYO3A (11730013_a_at) / RFU EBF3 (11725865_a_at) / Fold change /veh EBF3 (11725865_a_at) / RFU CAMK2N1 (11719241_x_at) / Fold change /veh CAMK2N1 (11719241_x_at) / RFU C5orf56 (11738088_a_at) / Fold change /veh C5orf56 (11738088_a_at) / RFU OLFML3 (11715873_a_at) / Fold change /veh OLFML3 (11715873_a_at) / RFU LOC100653217 /// NTM (11731650_a_at) / Fold change /veh LOC100653217 /// NTM (11731650_a_at) / RFU MAPK11 (11762145_a_at) / Fold change /veh MAPK11 (11762145_a_at) / RFU FIZ1 (11724087_x_at) / Fold change /veh FIZ1 (11724087_x_at) / RFU OASL (11726364_x_at) / Fold change /veh OASL (11726364_x_at) / RFU SOX15 (11748057_x_at) / Fold change /veh SOX15 (11748057_x_at) / RFU CD79A (11719716_a_at) / Fold change /veh CD79A (11719716_a_at) / RFU HIST1H1D (11736915_at) / Fold change /veh HIST1H1D (11736915_at) / RFU CASKIN2 (11723855_a_at) / Fold change /veh CASKIN2 (11723855_a_at) / RFU LOC730098 (11760151_x_at) / Fold change /veh LOC730098 (11760151_x_at) / RFU OR4N2 (11742367_at) / Fold change /veh OR4N2 (11742367_at) / RFU PRRT2 (11749266_a_at) / Fold change /veh PRRT2 (11749266_a_at) / RFU SNX32 (11753110_a_at) / Fold change /veh SNX32 (11753110_a_at) / RFU CDHR5 (11726645_a_at) / Fold change /veh CDHR5 (11726645_a_at) / RFU RCAN1 (11760418_a_at) / Fold change /veh RCAN1 (11760418_a_at) / RFU FAM167A (11723789_a_at) / Fold change /veh FAM167A (11723789_a_at) / RFU FAM26E (11764081_at) / Fold change /veh FAM26E (11764081_at) / RFU ISYNA1 (11749810_s_at) / Fold change /veh ISYNA1 (11749810_s_at) / RFU ACY1 (11761880_at) / Fold change /veh ACY1 (11761880_at) / RFU 11764098_at / Fold change /veh 11764098_at / RFU SAMD14 (11745864_x_at) / Fold change /veh SAMD14 (11745864_x_at) / RFU NPB (11741838_a_at) / Fold change /veh NPB (11741838_a_at) / RFU TMPRSS6 (11731388_a_at) / Fold change /veh TMPRSS6 (11731388_a_at) / RFU KRTAP10-2 (11738614_at) / Fold change /veh KRTAP10-2 (11738614_at) / RFU ARHGAP8 /// PRR5-ARHGAP8 (11727945_x_at) / Fold change /veh ARHGAP8 /// PRR5-ARHGAP8 (11727945_x_at) / RFU KRTAP5-7 /// NADSYN1 (11734609_at) / Fold change /veh KRTAP5-7 /// NADSYN1 (11734609_at) / RFU RASL12 (11751679_a_at) / Fold change /veh RASL12 (11751679_a_at) / RFU CDKN2B (11736163_a_at) / Fold change /veh CDKN2B (11736163_a_at) / RFU PRF1 (11729649_at) / Fold change /veh PRF1 (11729649_at) / RFU, ZNF638 /// ZNF638-IT1 / Fold change vs veh, ZNF638 /// ZNF638-IT1 / RFU, PANK3 / Fold change vs veh, PANK3 / RFU, SH3YL1 / Fold change vs veh, SH3YL1 / RFU, ZEB2 / Fold change vs veh, ZEB2 / RFU, NRIP1 / Fold change vs veh, NRIP1 / RFU, PTTG1IP / Fold change vs veh, PTTG1IP / RFU, CAPN2 / Fold change vs veh, CAPN2 / RFU, MED14 / Fold change vs veh, MED14 / RFU, SNORA58 / Fold change vs veh, SNORA58 / RFU, C1orf63 / Fold change vs veh, C1orf63 / RFU, LRRFIP1 / Fold change vs veh, LRRFIP1 / RFU, NDUFAF7 / Fold change vs veh, NDUFAF7 / RFU, SLC12A2 / Fold change vs veh, SLC12A2 / RFU, IBTK / Fold change vs veh, IBTK / RFU, ESF1 / Fold change vs veh, ESF1 / Fold change vs veh, TMEM50B / RFU, TAOK1 / Fold change vs veh, TAOK1 / RFU, ACBD3 / Fold change vs veh, ACBD3 / RFU, TMA16 / Fold change vs veh, TMA16 / RFU, RWDD3 / Fold change vs veh, RWDD3 / RFU, BCAT1 / Fold change vs veh, BCAT1 / RFU, EDEM3 / Fold change vs veh, EDEM3 / RFU, TMEM33 / Fold change vs veh, TMEM33 / RFU, WDR75 / Fold change vs veh, WDR75 / RFU, AHCTF1 / Fold change vs veh, AHCTF1 / RFU, TFRC / Fold change vs veh, TFRC / RFU, ZDHHC17 / Fold change vs veh, ZDHHC17 / RFU, NOM1 / Fold change vs veh, NOM1 / RFU, ARL8B / Fold change vs veh, ARL8B / RFU, ZBTB11 / Fold change vs veh, ZBTB11 / RFU, TAMM41 / Fold change vs veh, TAMM41 / RFU, KIAA1704 /// LOC100996395 / Fold change vs veh, KIAA1704 /// LOC100996395 / RFU, ING1 / Fold change vs veh, ING1 / RFU, TRMT61B / Fold change vs veh, TRMT61B / RFU, FUBP3 / Fold change vs veh, FUBP3 / RFU, TP53 / Fold change vs veh, TP53 / RFU, TNKS2 / Fold change vs veh, TNKS2 / RFU, ZFP14 / Fold change vs veh, ZFP14 / RFU, ACTR2 / Fold change vs veh, ACTR2 / RFU, PPP3R1 / Fold change vs veh, PPP3R1 / RFU, PIK3R1 / Fold change vs veh, PIK3R1 / RFU, HNRNPA1 / Fold change vs veh, HNRNPA1 / RFU, RNF170 / Fold change vs veh, RNF170 / RFU, ZNF28 / Fold change vs veh, ZNF28 / RFU, RNGTT / Fold change vs veh, RNGTT / RFU, OGT / Fold change vs veh, OGT / RFU, BRD1 / Fold change vs veh, BRD1 / RFU, MARS / Fold change vs veh, MARS / RFU, ZNF655 / Fold change vs veh, ZNF655 / RFU, FAHD1 / Fold change vs veh, FAHD1 / RFU, BDP1 / Fold change vs veh, BDP1 / RFU, LRRCC1 / Fold change vs veh, LRRCC1 / RFU, ARID1A / Fold change vs veh, ARID1A / RFU, ZNF146 / Fold change vs veh, ZNF146 / RFU, ZNF330 / Fold change vs veh, ZNF330 / RFU, GPN3 / Fold change vs veh, GPN3 / RFU, C9orf123 / Fold change vs veh, C9orf123 / RFU, N4BP2L2 / Fold change vs veh, N4BP2L2 / RFU, ARFIP1 / Fold change vs veh, ARFIP1 / RFU, FAM179B / Fold change vs veh, FAM179B / RFU, BCL10 / Fold change vs veh, BCL10 / RFU, UHRF1BP1L / Fold change vs veh, UHRF1BP1L / RFU, BET1 / Fold change vs veh, BET1 / RFU, CNOT2 / Fold change vs veh, CNOT2 / RFU, ZNF268 / Fold change vs veh, ZNF268 / Fold change vs veh, ZNF507 / RFU, DGCR2 / Fold change vs veh, DGCR2 / RFU, WDSUB1 / Fold change vs veh, WDSUB1 / Fold change vs veh, HSP90B1 /// MIR3652 / RFU, ADSS / Fold change vs veh, ADSS / RFU, GK / Fold change vs veh, GK / RFU, ZNF148 / Fold change vs veh, ZNF148 / RFU, TAF9 / Fold change vs veh, TAF9 / RFU, SLC1A5 / Fold change vs veh, SLC1A5 / RFU, SLMO2 / Fold change vs veh, SLMO2 / RFU, ABCC4 / Fold change vs veh, ABCC4 / RFU, LOC101060439 /// RAP1B / Fold change vs veh, LOC101060439 /// RAP1B / RFU, RFX7 / Fold change vs veh, RFX7 / RFU, GTPBP10 / Fold change vs veh, GTPBP10 / RFU, CNEP1R1 / Fold change vs veh, CNEP1R1 / RFU, BIVM-ERCC5 /// ERCC5 / Fold change vs veh, BIVM-ERCC5 /// ERCC5 / RFU, ILF3 / Fold change vs veh, ILF3 / RFU 11762660_at / Fold change /veh 11762660_at / RFU VCAN (11757783_s_at) / Fold change /veh VCAN (11757783_s_at) / RFU DDX43 (11728927_at) / Fold change /veh DDX43 (11728927_at) / RFU KRT8 (11758188_x_at) / Fold change /veh KRT8 (11758188_x_at) / RFU NKD1 (11759106_at) / Fold change /veh NKD1 (11759106_at) / RFU SRD5A1 (11742802_a_at) / Fold change /veh SRD5A1 (11742802_a_at) / RFU TPSAB1 /// TPSB2 (11721975_s_at) / Fold change /veh TPSAB1 /// TPSB2 (11721975_s_at) / RFU GSTM3 (11746129_a_at) / Fold change /veh GSTM3 (11746129_a_at) / RFU IL23R (11737362_x_at) / Fold change /veh IL23R (11737362_x_at) / RFU TMEM51 (11727254_a_at) / Fold change /veh TMEM51 (11727254_a_at) / RFU PIWIL2 (11732686_x_at) / Fold change /veh PIWIL2 (11732686_x_at) / RFU ORM1 (11744905_x_at) / Fold change /veh ORM1 (11744905_x_at) / RFU CCDC152 (11743942_at) / Fold change /veh CCDC152 (11743942_at) / RFU ECM1 (11717891_a_at) / Fold change /veh ECM1 (11717891_a_at) / RFU IL23R (11748794_a_at) / Fold change /veh IL23R (11748794_a_at) / RFU TNFAIP8L3 (11732012_x_at) / Fold change /veh TNFAIP8L3 (11732012_x_at) / RFU MBOAT4 (11741988_at) / Fold change /veh MBOAT4 (11741988_at) / RFU 11764193_at / Fold change /veh 11764193_at / RFU TMEM53 (11763286_at) / Fold change /veh TMEM53 (11763286_at) / RFU MAGEB2 (11727129_at) / Fold change /veh MAGEB2 (11727129_at) / RFU TMEM200A (11744735_a_at) / Fold change /veh TMEM200A (11744735_a_at) / RFU CCDC152 (11751479_a_at) / Fold change /veh CCDC152 (11751479_a_at) / RFU FAM211A (11726209_a_at) / Fold change /veh FAM211A (11726209_a_at) / RFU RGS16 (11746705_a_at) / Fold change /veh RGS16 (11746705_a_at) / RFU VCAN (11755009_s_at) / Fold change /veh VCAN (11755009_s_at) / RFU RHOB (11743442_s_at) / Fold change /veh RHOB (11743442_s_at) / RFU RGS16 (11720943_a_at) / Fold change /veh RGS16 (11720943_a_at) / RFU RGS16 (11720944_at) / Fold change /veh RGS16 (11720944_at) / RFU, VPS4B / Fold change vs veh, VPS4B / RFU, CREB1 / Fold change vs veh, CREB1 / RFU, DNAJC13 / Fold change vs veh, DNAJC13 / RFU, GNAQ / Fold change vs veh, GNAQ / RFU, CDK5R1 / Fold change vs veh, CDK5R1 / RFU, ZRANB3 / Fold change vs veh, ZRANB3 / RFU, CUL4A / Fold change vs veh, CUL4A / RFU, CCNY / Fold change vs veh, CCNY / RFU, UFL1 / Fold change vs veh, UFL1 / RFU, COG3 / Fold change vs veh, COG3 / RFU, DIAPH2 / Fold change vs veh, DIAPH2 / RFU, SKA2 / Fold change vs veh, SKA2 / RFU, AFF3 / Fold change vs veh, AFF3 / RFU, LMF1 / Fold change vs veh, LMF1 / RFU, IPO11 / Fold change vs veh, IPO11 / RFU, DFFB / Fold change vs veh, DFFB / RFU, FOXP1 / Fold change vs veh, FOXP1 / RFU, CARD8 / Fold change vs veh, CARD8 / RFU, STRN3 / Fold change vs veh, STRN3 / RFU, ADK / Fold change vs veh, ADK / RFU, RASSF2 / Fold change vs veh, RASSF2 / RFU, WIPF1 / Fold change vs veh, WIPF1 / RFU, LARP1B / Fold change vs veh, LARP1B / RFU, RASA1 / Fold change vs veh, RASA1 / RFU, RB1 / Fold change vs veh, RB1 / RFU, PPFIA1 / Fold change vs veh, PPFIA1 / RFU, MAT2A / Fold change vs veh, MAT2A / RFU, CCT5 / Fold change vs veh, CCT5 / RFU, WDR92 / Fold change vs veh, WDR92 / RFU, CUX1 / Fold change vs veh, CUX1 / RFU, TTC7A / Fold change vs veh, TTC7A / RFU, TMEM135 / Fold change vs veh, TMEM135 / RFU, DEPTOR / Fold change vs veh, DEPTOR / RFU, CPM / Fold change vs veh, CPM / RFU, DNAJB6 / Fold change vs veh, DNAJB6 / RFU, CACNA2D3 / Fold change vs veh, CACNA2D3 / RFU, DTX4 / Fold change vs veh, DTX4 / RFU, TFCP2 / Fold change vs veh, TFCP2 / RFU, GMCL1 /// GMCL1P1 / Fold change vs veh, GMCL1 /// GMCL1P1 / RFU, AEBP2 / Fold change vs veh, AEBP2 / RFU, SNHG1 /// SNORD22 /// SNORD25 /// SNORD26 /// SNORD27 /// SNORD28 /// SNORD29 /// SNORD31 / Fold change vs veh, SNHG1 /// SNORD22 /// SNORD25 /// SNORD26 /// SNORD27 /// SNORD28 /// SNORD29 /// SNORD31 / Fold change (Aza/veh), C12orf56 (ProbeSet 11735607_a_at) / Fold change (ACY-1035/veh), C12orf56 (ProbeSet 11735607_a_at) / Fold change (Aza/veh), FGFR1OP (ProbeSet 11751329_s_at) / Fold change (ACY-1035/veh), FGFR1OP (ProbeSet 11751329_s_at) / Fold change (Aza/veh), VPS36 (ProbeSet 11739960_a_at) / Fold change (ACY-1035/veh), VPS36 (ProbeSet 11739960_a_at) / RFU SYPL1 (11715823_x_at) / Fold change /veh SYPL1 (11715823_x_at) / RFU IGFBP7 (11715501_s_at) / Fold change /veh IGFBP7 (11715501_s_at) / RFU REEP3 (11722064_at) / Fold change /veh REEP3 (11722064_at) / RFU IGLL1 (11728026_x_at) / Fold change /veh IGLL1 (11728026_x_at): dose or concentration left out as unconfirmed
Details: MV-4-11 cells, 48 hours

Nc1ncn([C@@H]2O[C@H](CO)[C@@H](O)[C@H]2O)c(=O)n1 [azacitidine]
RFU CYB561 (11721691_x_at): 13.47 RFU
